Experimental data taken from US20230255934A1, “NURR1 RECEPTOR MODULATORS AND USES THEREOF” (The Regents of the University of California, priority 2020, published 2023).

Molecular target: T1, RXRα LBD (Homo sapiens, UniProt P19793)
T1 construct: made in house
T1 sequence (P19793 with tags, fused parts or gaps): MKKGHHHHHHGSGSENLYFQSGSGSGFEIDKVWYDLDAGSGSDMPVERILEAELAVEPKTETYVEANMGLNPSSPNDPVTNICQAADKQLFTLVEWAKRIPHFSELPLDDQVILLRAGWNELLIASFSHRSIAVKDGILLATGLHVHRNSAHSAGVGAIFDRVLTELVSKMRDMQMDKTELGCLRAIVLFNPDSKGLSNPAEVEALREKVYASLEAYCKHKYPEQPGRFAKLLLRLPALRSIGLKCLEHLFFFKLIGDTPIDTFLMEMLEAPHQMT
Assay: MST binding to RXRα LBD (specificity control)
Source text: The Nurr1 LBD protein, containing the N-terminal “LAP2” sequence that is recognized by a “coumarin ligase”, was expressed and purified using metal affinity and size-exclusion chromatography according to the previously reported protocol, except that the TEV cleavage step and reverse metal affinity chromatography were omitted.^1 The RXRα LBD protein, containing the N-terminal “LAP2” sequence, was expressed and purified identically to the Nurr1 LBD protein with minor modifications. Specifically, the elution of protein from Talon resin was performed by a step gradient of 10 CV each of 50 mM, 100 mM, 200 mM and 300 mM imidazole in 50 mM Tris-HCl buffer containing 300 mM NaCl at pH 7.8. Purity of protein in each fraction was analyzed by SDS PAGE and fractions eluted with 100-300 mM imidazole were pooled and concentrated. […]
Data were collected using the Monolith NT.115 System (Nanotemper), with settings for all samples at 40% excitation power and 40% MST power. The initial fluorescence was recorded for 3 sec and the thermophoresis fluorescence response was recorded for 20 sec. The data was inspected with Palmist software^5, and data points affected by initial fluorescence quenching or photobleaching were eliminated. The fluorescent response for each sample was normalized to the initial fluorescence using Palmist software to provide the values of thermophoresis (Fn). […]

## Clc1ccc2[nH]ccc2c1 [5-chloroindole]
  Binding to the RXRα LBD (in words): does not exhibit saturable binding
